Counter-ions that a name gives are not always drawn.
Legend:
293T cells = experiment: Growth assay (cytotoxicity); type: cell-based; settings: 2 day incubation
Experimental: A growth assay was performed to evaluate the compounds disclosed herein for cytotoxicity. Briefly, 5,000,000 293T cells were resuspended in 18 mL of cDMEM for a final concentration of 277,777 cells/mL. […] In a separate 96 well dilution plate, 199 uL cDMEM and 1 uL of DMSO or any one of the compounds disclosed herein (shown as Test Compound 1, 2, 3, 4, 5, or 6 below) were added to wells A4, A8, C4, C8, E4, E8, G4, and G8. 133.3 uL cDMEM was added to wells 1, 2, 3, 5, 6, and 7 in rows A, C, E and G of the dilution plate. Compounds were serially diluted leftwards in threefold dilutions (66.7 uL into 133.3 uL cDMEM). 20 uL of each dilution was transferred in duplicate (duplicates in vertical paired wells) to the cells plated in the 96-well plate shown in Table 5, to the total concentrations shown below. 200 uL cDMEM was added to media wells (wells G5-H8). The plate was then placed in a humidified chamber for a 2 day incubation, and then photographed (media was more yellow in wells with potent cell growth). Absorbance was then measured at about […] (lower for more acidic media) and about […] (higher for more acidic media).

IRE1a [1] = target: T1, IRE1a (Homo sapiens, UniProt O75460); experiment: In vitro FRET assay (XBP1 RNA probe cleavage by IRE1a); type: biochemical; set-up: purchased SignalChem; settings: 2 nM IRE1a protein
T1 sequence (O75460 19-977): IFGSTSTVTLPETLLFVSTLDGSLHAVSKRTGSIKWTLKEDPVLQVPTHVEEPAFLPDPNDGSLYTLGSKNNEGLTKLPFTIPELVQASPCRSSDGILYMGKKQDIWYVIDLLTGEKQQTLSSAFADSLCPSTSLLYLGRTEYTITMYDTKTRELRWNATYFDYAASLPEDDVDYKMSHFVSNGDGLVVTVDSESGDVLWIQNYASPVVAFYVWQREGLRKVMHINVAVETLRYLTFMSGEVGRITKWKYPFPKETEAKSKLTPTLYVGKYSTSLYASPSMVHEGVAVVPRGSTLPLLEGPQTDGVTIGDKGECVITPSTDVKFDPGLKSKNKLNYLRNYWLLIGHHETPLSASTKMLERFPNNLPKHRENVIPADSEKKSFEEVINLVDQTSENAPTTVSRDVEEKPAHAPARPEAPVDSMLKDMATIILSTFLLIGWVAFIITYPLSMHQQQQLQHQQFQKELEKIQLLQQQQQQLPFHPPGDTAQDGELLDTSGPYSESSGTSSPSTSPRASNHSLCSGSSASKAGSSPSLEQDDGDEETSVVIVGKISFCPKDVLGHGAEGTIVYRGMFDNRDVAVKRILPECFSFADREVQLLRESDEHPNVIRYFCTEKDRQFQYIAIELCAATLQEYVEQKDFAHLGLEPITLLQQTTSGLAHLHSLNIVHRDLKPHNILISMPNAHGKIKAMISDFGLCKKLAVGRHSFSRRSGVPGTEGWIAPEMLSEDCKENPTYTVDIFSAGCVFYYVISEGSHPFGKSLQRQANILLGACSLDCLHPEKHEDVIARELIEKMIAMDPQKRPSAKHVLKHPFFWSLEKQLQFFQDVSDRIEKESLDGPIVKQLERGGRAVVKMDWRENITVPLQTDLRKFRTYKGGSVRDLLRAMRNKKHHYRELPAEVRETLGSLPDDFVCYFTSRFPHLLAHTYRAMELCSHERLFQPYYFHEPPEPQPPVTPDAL

hERG channel = target: T2, hERG channel (Homo sapiens, UniProt Q12809); experiment: hERG potassium ion channel automated planar clamp (QPatch); type: cell-based; settings: hERG channel expressed in a stable CHO cell line, read-out: hERG channel blockade Mean IC50
T2 construct: expressed in transfected cells
T2 sequence (Q12809 whole entry): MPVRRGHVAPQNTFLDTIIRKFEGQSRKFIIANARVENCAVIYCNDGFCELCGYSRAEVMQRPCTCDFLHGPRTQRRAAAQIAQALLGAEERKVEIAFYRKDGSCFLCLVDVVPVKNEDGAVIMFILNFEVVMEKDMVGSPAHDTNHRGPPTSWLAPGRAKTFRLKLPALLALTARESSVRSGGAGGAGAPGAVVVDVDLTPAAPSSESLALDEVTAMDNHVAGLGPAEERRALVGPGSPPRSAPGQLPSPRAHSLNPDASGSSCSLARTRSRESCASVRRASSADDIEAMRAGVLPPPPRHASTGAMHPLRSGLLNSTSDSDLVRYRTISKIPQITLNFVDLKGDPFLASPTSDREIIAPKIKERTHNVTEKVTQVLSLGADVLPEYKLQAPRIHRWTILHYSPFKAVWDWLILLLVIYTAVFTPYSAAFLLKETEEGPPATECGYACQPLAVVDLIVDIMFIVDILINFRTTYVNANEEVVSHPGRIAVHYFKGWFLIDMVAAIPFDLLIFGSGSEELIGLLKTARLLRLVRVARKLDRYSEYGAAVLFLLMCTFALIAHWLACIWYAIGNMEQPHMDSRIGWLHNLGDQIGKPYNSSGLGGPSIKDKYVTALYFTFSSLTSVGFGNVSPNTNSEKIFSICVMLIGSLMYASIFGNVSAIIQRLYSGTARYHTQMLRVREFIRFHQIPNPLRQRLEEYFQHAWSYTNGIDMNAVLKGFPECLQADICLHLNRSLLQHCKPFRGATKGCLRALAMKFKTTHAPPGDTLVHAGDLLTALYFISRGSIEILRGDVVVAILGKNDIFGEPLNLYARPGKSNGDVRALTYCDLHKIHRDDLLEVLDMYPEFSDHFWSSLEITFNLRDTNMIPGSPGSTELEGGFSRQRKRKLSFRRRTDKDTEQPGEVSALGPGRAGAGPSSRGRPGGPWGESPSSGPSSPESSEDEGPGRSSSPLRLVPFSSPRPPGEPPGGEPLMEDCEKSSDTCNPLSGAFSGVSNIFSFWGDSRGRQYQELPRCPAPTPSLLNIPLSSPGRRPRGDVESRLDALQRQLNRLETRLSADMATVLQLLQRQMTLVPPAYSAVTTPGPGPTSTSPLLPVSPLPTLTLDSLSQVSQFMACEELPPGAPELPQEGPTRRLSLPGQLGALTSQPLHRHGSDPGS
Experimental: Blockade of the cardiac ion channel coded by the hERG gene can lead to cardiac arrhythmia. […] To determine the viability of the compounds disclosed herein as pharmacological agents that would not affect the hERG channel blockade, a standard automated planar clamp method was employed to determine the IC50 for various test compounds on their inhibition of the channel. An electrophysiological assay was prepared to measure the electric current passing through the hERG channel expressed in a stable CHO cell line by applying the planar clamp method. This assay was performed using the automated QPatch platform (Sophion, Denmark) which allows fast and accurate electrophysiological characterization of the hERG ion channel and the determination of IC50 values for the test compounds, as shown in Table 9.

IRE1a [2] = target: T1, IRE1a; experiment: IRE1a Endoribonuclease Nanoluciferase Assay (XBP1 luciferase reporter in 293T cells); type: cell-based; settings: 293T cells transfected with XBP1 luciferase reporter, ER stressors +/- inhibitors
Method in brief: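 293T cells were transfected with a PGK-Luc2-P2A-XBP1u-nanoluciferase-PEST reporter and plated in 96-well format. A day later they were treated with ER stressors with or without inhibitors. Lysates were read for luminescence with OneGlo, then again after Stop and Glo.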

Structure (SMILES)	% Growth at 0.185 uM (293T cells)	% Growth at 0.5556 uM (293T cells)	% Growth at 1.667 uM (293T cells)	% Growth at 5 uM (293T cells)	IC50 (IRE1a [1]) [nM]	IC50 (hERG channel) [nM]	EC50 (IRE1a [2]) [nM]
CCc1cc(-c2ccc(NS(=O)(=O)c3ccccc3Cl)nc2C)cc2cnc(N[C@H]3CC[C@H](N)CC3)nc12.O=CO [16; Formic Acid]	D (D: >75% to ≤100%)	D (D: >75% to ≤100%)	D (D: >75% to ≤100%)	B (B: >25% to ≤50%)	≤ 5	10000 to 50000	≤ 5
CCc1cc(-c2ccc(NS(=O)(=O)c3ccccc3Cl)cc2C)cc2cnc(N[C@H]3CC[C@H](N)CC3)nc12.O=CO [3; Formic Acid]	D (D: >75% to ≤100%)	D (D: >75% to ≤100%)	C (C: >50% to ≤75%)	A (A: ≤25%)	≤ 5	10000 to 50000	5 to 50
CCc1cc(-c2ccc(NS(=O)(=O)c3ccccc3Cl)c(F)c2)cc2cnc(N[C@H]3CC[C@H](N)CC3)nc12.O=CO [24; Formic Acid]	D (D: >75% to ≤100%)	D (D: >75% to ≤100%)	C (C: >50% to ≤75%)	C (C: >50% to ≤75%)	≤ 5	1000 to 10000	≤ 5
CCc1cc(-c2ccc(NS(=O)(=O)c3ccccc3Cl)nc2OC)cc2cnc(N[C@H]3CC[C@H](N)CC3)nc12 [37; HCl ^]		D (D: >75% to ≤100%)	C (C: >50% to ≤75%)	B (B: >25% to ≤50%)	≤ 5	10000 to 50000	≤ 5
CCc1cc(NS(=O)(=O)c2ccccc2Cl)ccc1-c1cc(CC)c2nc(N[C@H]3CC[C@H](N)CC3)ncc2c1.O=CO [34; Formic Acid]	D (D: >75% to ≤100%)	D (D: >75% to ≤100%)	D (D: >75% to ≤100%)	A (A: ≤25%)	≤ 5		5 to 50
CCc1cc(-c2cnc(NS(=O)(=O)c3ccccc3Cl)nc2C)cc2cnc(N[C@H]3CC[C@H](N)CC3)nc12.O=CO [23; Formic Acid]	D (D: >75% to ≤100%)	C (C: >50% to ≤75%)	C (C: >50% to ≤75%)	D (D: >75% to ≤100%)	≤ 5		≤ 5
CCc1cc(-c2ccc(NS(=O)(=O)c3ccccc3Cl)cc2OC)cc2cnc(N[C@H]3CC[C@H](N)CC3)nc12.O=CO [19; Formic Acid]	D (D: >75% to ≤100%)	D (D: >75% to ≤100%)	C (C: >50% to ≤75%)	A (A: ≤25%)	≤ 5		≤ 5
CCc1cc(-c2nnc(NS(=O)(=O)c3ccccc3Cl)cc2OC)cc2cnc(N[C@H]3CC[C@H](N)CC3)nc12.O=CO [65; Formic Acid]	D (D: >75% to ≤100%)	D (D: >75% to ≤100%)	D (D: >75% to ≤100%)	C (C: >50% to ≤75%)	≤ 5		5 to 50
CCc1cc(-c2ccc(NS(=O)(=O)c3ccccc3Cl)nn2)cc2cnc(N[C@H]3CC[C@H](N)CC3)nc12.O=CO [32; Formic Acid]	D (D: >75% to ≤100%)	D (D: >75% to ≤100%)	C (C: >50% to ≤75%)	B (B: >25% to ≤50%)	≤ 5		≤ 5
CCc1cc(-c2ncc(NS(=O)(=O)c3ccccc3Cl)cc2F)cc2cnc(N[C@H]3CC[C@H](N)CC3)nc12.O=CO [52; Formic Acid]	D (D: >75% to ≤100%)	D (D: >75% to ≤100%)	D (D: >75% to ≤100%)	C (C: >50% to ≤75%)	≤ 5		≤ 5
CCc1cc(-c2ccc(NS(=O)(=O)c3ccccc3Cl)c(F)c2C)cc2cnc(N[C@H]3CC[C@H](N)CC3)nc12.O=CO [71; Formic Acid]	D (D: >75% to ≤100%)	D (D: >75% to ≤100%)	C (C: >50% to ≤75%)	B (B: >25% to ≤50%)	≤ 5		≤ 5
CCc1cc(-c2ccc(NS(=O)(=O)c3ccccc3Cl)c(C)c2C)cc2cnc(N[C@H]3CC[C@H](N)CC3)nc12.O=CO [22; Formic Acid]	D (D: >75% to ≤100%)	D (D: >75% to ≤100%)	D (D: >75% to ≤100%)	A (A: ≤25%)	5 to 50		> 100
CCc1cc(-c2cc(NS(=O)(=O)c3ccccc3Cl)n[nH]2)cc2cnc(N[C@H]3CC[C@H](N)CC3)nc12.O=CO [29; Formic Acid]	D (D: >75% to ≤100%)	D (D: >75% to ≤100%)	D (D: >75% to ≤100%)	D (D: >75% to ≤100%)	≤ 5		> 100
CCc1cc(-c2ncc(NS(=O)(=O)c3ccccc3Cl)cn2)cc2cnc(N[C@H]3CC[C@H](N)CC3)nc12.O=CO [33; Formic Acid]	D (D: >75% to ≤100%)	D (D: >75% to ≤100%)	D (D: >75% to ≤100%)	C (C: >50% to ≤75%)	≤ 5		≤ 5
CCc1cc(-c2nnc(NS(=O)(=O)c3ccccc3Cl)cc2C)cc2cnc(N[C@H]3CC[C@H](N)CC3)nc12.O=CO [67; Formic Acid]	D (D: >75% to ≤100%)	D (D: >75% to ≤100%)	C (C: >50% to ≤75%)	C (C: >50% to ≤75%)	≤ 5		5 to 50
CCc1cc(-c2cnc(NS(=O)(=O)c3ccccc3Cl)nc2OC)cc2cnc(N[C@H]3CC[C@H](N)CC3)nc12.O=CO [46; Formic Acid]	D (D: >75% to ≤100%)	D (D: >75% to ≤100%)	D (D: >75% to ≤100%)	D (D: >75% to ≤100%)	≤ 5		≤ 5
CCc1cc(-c2cc(F)c(NS(=O)(=O)c3ccccc3Cl)cc2C)cc2cnc(N[C@H]3CC[C@H](N)CC3)nc12.O=CO [21; Formic Acid]	D (D: >75% to ≤100%)	D (D: >75% to ≤100%)	D (D: >75% to ≤100%)	B (B: >25% to ≤50%)	≤ 5		5 to 50
CCc1cc(-c2cnc(NS(=O)(=O)c3ccccc3Cl)c(F)c2)cc2cnc(N[C@H]3CC[C@H](N)CC3)nc12.O=CO [55; Formic Acid]	D (D: >75% to ≤100%)	D (D: >75% to ≤100%)	D (D: >75% to ≤100%)	D (D: >75% to ≤100%)	≤ 5		≤ 5

Reference: patent US20180346446A1, “IRE1 SMALL MOLECULE INHIBITORS” (QUENTIS THERAPEUTICS, INC., priority 2017, published 2018)
